Where a name gives a salt, the structure may show the parent alone. Values belong to the compound of their own block, whether it stands above or below them.
Legend:
Assay type in all cases: physicochemical
[1] = Example 1: amorphous atorvastatin sealed in aluminium foil with oxygen absorbers, 80° C., 72 hr (HPLC)
Description: (§1) Amorphous atorvastatin (1 g) was sealed in a sealable aluminium foil together with the oxygen absorber Ageless® Z100 (Mitsubishi) or with the absorber of oxygen and carbon dioxide Ageless® E100 (Mitsubishi) and the sample was heated at 80° C. for 72 hr. The reference sample was prepared and heated in the same way without the use of absorbers.

[2] = Example 2: amorphous atorvastatin sealed in aluminium foil with oxygen absorbers, 40° C., 1.5 months (HPLC)
Description: as §1, with “40°” for “80°”, “1.5 months.” for “72 hr.”

[3] = Example 7: test of stability under reduced pressure
Description: A pure amorphous atorvastatin substance was close din a tempered box under air pressure of 5.5-7.5 kPa. The partial pressure of oxygen was estimated as 1.2-1.5 kPa
The measurement has given the following results:
For comparison, sample 0010903/18 was kept in a thermostat at 80° C. under normal atmospheric pressure, i.e. partial pressure of oxygen about 18 kPa for 160 hours.

[4] = Stability tests of solid amorphous atorvastatin in different packages and oxygen partial pressures
Description: In order to make the carried-out experiments more precise, stability tests of solid amorphous atorvastatin and of several selected dosage forms were established. As to containers, polyethylene (PE) and an aluminium foil with a sealable PE layer (Al+PE) were used. Some of the stability data were determined in nitrogen atmosphere (N2) (with a partial pressure of oxygen of roughly 3 kPa).

[5] = Oxidation of 1% atorvastatin solution in ethyl acetate-acetonitrile (1:1) at 40° C.
Description: In order to precisely determine the decomposition mechanism, the following experiments examining only the oxidative decomposition of atorvastatin were carried out. A recent publication/Pharmaceutical Development and Technology, 7(1), 1-32 (2002)/described a set of experiments which are suitable for the recognition of oxidation of substances and for the determination of its mechanism.
The following experiments were carried out:
a. oxidation of a 1% solution of atorvastatin in the system of ethyl acetate-acetonitrile (1:1) at 40° C. using a radical initiator (2,2′-azobiscyanopentanoic acid) at a pressure of 1 MPa of oxygen; b. oxidation of a 1% solution of atorvastatin in the system of ethyl acetate-acetonitrile (1:1) at 40° C. without a radical initiator; c. control experiment in the system of ethyl acetate-acetonitrile (1:1) at 40° C. using a radical initiator (2,2′-azobiscyanopentanoic acid) in an inert atmosphere of argon (the partial pressure of oxygen found as being about 1 kPa).

[6] = Set of stress tests of atorvastatin (HPLC)
Description: The following experiments were carried out in order to determine the instability of atorvastatin. The purpose was to find out which factors lead to the degradation of the product. • 1. Set of stress tests. The stock solution of atorvastatin (2 ml) was gradually subjected to the following experiments: a. boil (24 hr) with 2 ml of 0.2 N hydrochloric acid, b. boil (24 hr) with 2 ml of 0.2 N acetic acid, c. boil (24 hr) with 2 ml of 0.2 N sodium hydroxide, d. boil (24 hr) with 2 ml of 4% hydrogen peroxide, e. boil (24 hr) with 2 ml of water, f. irradiation with UV radiation (5 hr), g. irradiation with visible light (24 hr), h. solid substance heated at 100° C. for 24 hr, i. solid substance subjected to UV radiation (5 hr), j. solid substance subjected to visible light (24 hr).

[7] = 80° C., 72 hr, oxygen absorber Ageless Z100
[8] = 80° C., 72 hr, oxygen and carbon dioxide absorber Ageless E100
[9] = 80° C., 72 hr, reference sample without absorbers
[10] = 40° C., 1.5 months, oxygen absorber Ageless Z100
[11] = 40° C., 1.5 months, oxygen and carbon dioxide absorber Ageless E100
[12] = 40° C., 1.5 months, reference sample without absorbers

Compound: hemicalcium salt of (3R,5R) 7-[3-phenyl-4-phenylcarbamoyl-2-(4-fluorophenyl)-5-isopropylpyrrol-1-yl]-3,5-dihydroxyheptanoic acid [amorphous atorvastatin]
- Lactone of Atorvastatin [1, 7]: 0.19%
- Total Impurities [1, 7]: 0.64%
- Lactone of Atorvastatin [1, 8]: 0.14%
- Total Impurities [1, 8]: 0.60%
- Lactone of Atorvastatin [1, 9]: 0.33%
- Total Impurities [1, 9]: 1.32%
- Lactone of Atorvastatin ([1]; Initial): 0%
- Total Impurities ([1]; Initial): 0.49%
- Lactone of Atorvastatin [2, 10]: 0%
- Total Impurities [2, 10]: 0.36%
- Lactone of Atorvastatin [2, 11]: 0.06%
- Total Impurities [2, 11]: 0.46%
- Lactone of Atorvastatin [2, 12]: 0.22%
- Total Impurities [2, 12]: 1.55%
- Lactone of Atorvastatin ([2]; Initial): 0%
- Total Impurities ([2]; Initial): 0.49%
- Total Impurities ([3]; air pressure 5.5-7.5 kPa (PO 1.2-1.5 kPa), 55 hrs, 60-65 ° C.): 0.33%
- Total Impurities ([3]; air pressure 5.5-7.5 kPa (PO 1.2-1.5 kPa), 160 hrs, 80-82 ° C.): 0.37%
- Total Impurities ([3]; air pressure 5.5-7.5 kPa (PO 1.2-1.5 kPa), 23 days, 20-25 ° C.): 0.29%
- Total Impurities ([3]; air pressure 5.5-7.5 kPa (PO 1.2-1.5 kPa), 42 days, 40-42 ° C.): 0.35%
- Total Impurities ([3]; normal atmospheric pressure, PO about 18 kPa, 80° C., 160 hours): 1.92%
- Impurities ([4]; 0 months, entry): 0.21%
- Impurities ([4]; 3 months, 5 ° C., package 2x RE, PO 18 kPa): 0.39%
- Impurities ([4]; 3 months, 5 ° C., package PE + Al, PO 3 kPa (N2)): 0.34%
- Impurities ([4]; 3 months, 5 ° C., package PE + Al, PO 18 kPa): 0.34%
- Impurities ([4]; 3 months, 25 ° C., package 2x PE, PO 18 kPa): 0.77%
- Impurities ([4]; 3 months, 25 ° C., package PE + Al, PO 3 kPa (N2)): 0.43%
- Impurities ([4]; 3 months, 25 ° C., package PE + Al, PO 18 kPa): 0.63%
- Impurities ([4]; 6 months, 5 ° C., package 2x PE, PO 18 kPa): 0.83%
- Impurities ([4]; 6 months, 5 ° C., package PE + Al, PO 3 kPa (N2)): 0.44%
- Impurities ([4]; 6 months, 5 ° C., package PE + Al, PO 18 kPa): 0.71%

- Impurities ([5]; 0 hours, entry sample): 0.49%
- Impurities ([5]; 24 hours, radical initiator no, PO 1 MPa, 40° C.): 9.27%
- Impurities ([5]; 24 hours, radical initiator yes, PO 0.001 MPa (argon), 40° C.): 0.98%
- Impurities ([5]; 24 hours, radical initiator yes, PO 1 MPa, 40° C.): 6.42%
- Impurities ([5]; 48 hours, radical initiator yes, PO 0.001 MPa (argon), 40° C.): 1.38%
- Impurities ([5]; 48 hours, radical initiator yes, PO 1 MPa, 40° C.): 24.37%
- Impurities ([5]; 72 hours, radical initiator yes, PO 1 MPa, 40° C.): 30.93%
- Content of Atorvastatin ([6]; 5 hr under UV in water): 64.3%
- Content of Atorvastatin ([6]; solid substance 5 hr, UV): 99.3%
- Content of Atorvastatin ([6]; solid substance 24 hr, 100° C.): 96.3%
- Content of Atorvastatin ([6]; solid substance 24 hr, visible light): 96.5%
- Content of Atorvastatin ([6]; solution, 24 hr in the light (visible)): 104.5%
- Content of Atorvastatin ([6]; stock solution, 24 hr boil in 0.1 N AcOH): 83.2%
- Content of Atorvastatin ([6]; stock solution, 24 hr boil in 0.1 N HCl): 2.1%
- Content of Atorvastatin ([6]; stock solution, 24 hr boil in 0.1 N NaOH): 72.0%
- Content of Atorvastatin ([6]; stock solution, 24 hr boil in 2% H2O2): 54.8%
- Content of Atorvastatin ([6]; stock solution, 24 hr boil in water): 88.4%
Compound: CC(C)c1c(C(=O)Nc2ccccc2)c(-c2ccccc2)c(-c2ccc(F)cc2)n1CC[C@@H](O)C[C@@H](O)CC(=O)O [atorvastatin, hemicalcium salt of (3R,5R) 7-[3-phenyl-4-phenylcarbamoyl-2-(4-fluorophenyl)-5-isopropylpyrrol-1-yl]-3,5-dihydroxyheptanoic acid]

Source: US20080171784A1, “Methods For the Stabilization of Atorvastatin” (ZENTIVA, A.S., priority 2003, published 2008)
